Experiment [1] addresses T1, glucocorticoid receptor (Mus musculus, UniProt P06537).
T1 construct: endogenous in cells; host or cells: LE II (mouse lung capillary endothelial) cells, 100,000 x g cytosol
T1 sequence (P06537 1-792): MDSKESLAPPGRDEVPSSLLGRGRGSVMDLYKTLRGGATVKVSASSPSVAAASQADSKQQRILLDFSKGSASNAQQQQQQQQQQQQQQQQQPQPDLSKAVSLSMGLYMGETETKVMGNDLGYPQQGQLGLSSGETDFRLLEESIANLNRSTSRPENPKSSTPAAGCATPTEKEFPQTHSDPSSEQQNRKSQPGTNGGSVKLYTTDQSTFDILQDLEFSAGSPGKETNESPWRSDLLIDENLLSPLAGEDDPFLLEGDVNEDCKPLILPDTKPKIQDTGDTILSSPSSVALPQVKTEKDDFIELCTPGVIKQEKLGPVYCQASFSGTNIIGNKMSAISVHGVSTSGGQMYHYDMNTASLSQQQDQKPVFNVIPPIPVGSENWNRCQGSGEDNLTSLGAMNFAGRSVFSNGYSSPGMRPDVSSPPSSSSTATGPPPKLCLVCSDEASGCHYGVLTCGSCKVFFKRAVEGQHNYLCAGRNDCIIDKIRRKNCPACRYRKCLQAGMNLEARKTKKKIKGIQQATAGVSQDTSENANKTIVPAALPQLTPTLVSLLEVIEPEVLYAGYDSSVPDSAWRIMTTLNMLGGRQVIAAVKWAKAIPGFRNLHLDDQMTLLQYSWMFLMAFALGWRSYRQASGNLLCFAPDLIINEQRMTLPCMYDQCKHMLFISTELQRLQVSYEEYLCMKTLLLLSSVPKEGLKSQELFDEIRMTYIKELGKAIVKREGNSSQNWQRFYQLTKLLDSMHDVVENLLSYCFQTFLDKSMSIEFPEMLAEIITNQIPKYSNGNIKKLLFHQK
The experiment in a line: competition for 3H-dexamethasone binding sites in LE II cytosol (glucocorticoid receptor affinity). To be noted: Table 1; displacement of 25 nM 3H-DEX, LE II (mouse lung capillary endothelial) cytosol, 3 hours on ice; read-out: IC50 Binding LEII. The method, then: LE II (mouse lung capillary endothelial) or HTC (rat hepatoma) cells were grown in Dulbecco's modified Eagle's (DMEM) medium plus 10% fetal calf serum (FCS), in 150 cm^2 T-flasks. Approximately 20 flasks of LE II cells or 10 flasks of HTC cells were needed for a 60-80 sample assay.
Cell monolayers were washed 3 times with Phosphate Buffered Saline (PBS) and harvested by scraping with a rubber policeman into an ice-cold sonication buffer of 0.25M sucrose; 10 mM Tris-HCl, pH 7.4; 5 mM ethylenediaminetetraacetic acid (EDTA); 5 mM dithiothereitol; and 10 mM sodium molybdate. All subsequent steps were performed at 4° C. The cells were pooled into a final volume of 8-12 mls, broken by sonication for 45 seconds with the microtip of a Branson sonifier at setting #3 and the residue was then centrifuged at 100,000 X g for 30 minutes with a Beckman L8-50, Ti50 rotor, at 40,000 rpm. […] Incubations were peformed in a final volume of 1 ml in 1.5 ml Eppendorf centrifuge tubes for 3 hours on ice.
Fine Sephadex G-50 gel was swollen and equilibrated against column buffer of 100 mM Tris-HCl, pH 7.8; and 3 mM CaCl2. Columns were poured to a final packed volume of 4.5 ml in 5 ml plastic disposable pipets.
The packed columns were then drained of buffer and the 1 ml incubated samples were applied to each. The samples were washed into the columns with 0.5 ml of column buffer, and the exclusion volumes containing the protein peaks were eluted with another 1 ml of column buffer and collected. Aliquots of 750 μl of Biorad protein reagent were diluted 1:5 in H2 O. OD630 nm reading were compared with those obtained for a bovine serum albumin standard curve.

For experiment [2], the system named is alkaline phosphatase (APb). The experiment in a line: alkaline phosphatase (APb) induction in LE II cells. The following applies: Mus musculus, Table 1, about 65 hours, relative to dexamethasone = 1, read-out: Efficacy (DEX = 1) Alk P. The format is cell-based, mouse. The method, then:
This is another standard test for glucocorticoid activity.
LE II cells were grown in DMEM plus 10% FCS, at 37° C., in a 10% carbon dioxide atmosphere. Confluent monolayers of cells were trypsinized and seeded at a 1:15 dilution into 6-well Costar cluster dishes. […] In all experiments, DEX, at concentrations of 10^-9 to 10^-6 M, was added to some of the wells as a positive control.
Cell monolayers were washed with PBS and harvested by scraping with a rubber policeman into 400 μl of a buffer of 20 mM Tris-HCl at pH 7.4; 2 mM MgCl2; and 150 mM NaCl together with 1% Triton X-100. Samples were transferred into 1.5 ml Eppendorf centrifuge tubes and placed on ice. The tubes were first vortexed and then centrifuged in the Eppendorf minicentrifuge for 2 minutes. Duplicate 100 μl aliquots of supernatant were placed into 12×75 mm glass test tubes for determination of APb activity, while the rest was saved for protein determination. […] The tubes were incubated in a 37° C. water bath for between 20 to 50 minutes, depending on the activity of the samples. The APb reaction was terminated by the addition of 0.5 ml of […]. The tubes were mixed and 200 μl portions from each tube were transferred in triplicate to a 96 well microtiter plate. The OD410 nm of each well was then determined using a Dynatech plate reader.
[…] of the cell supernatant were transferred to 96 well microtiter plates for protein determination by a modification of the Lowry method. […] The plates were shaken for 1 hour and then the OD630 was determined using a Dynatech plate reader. The protein content for each sample was calculated by comparing the average OD630 reading with those obtained for a bovine serum albumin standard curve.
The alkaline phosphatase activity of in each sample was expressed as μmoles product formed per minute per mg protein in the Alk P column of Tables 1 and 2. Results are expressed as the induction ability of a compound as compared to dexamethasone.

This note sets out measurements from patent publication US4599331A, “Etianic acids as antiangiogenics” (Syntex (U.S.A.) Inc., priority 1984, dated 1986).

Each structure is given as a SMILES string.

Consider `CCC(=O)O[C@]1(C(=O)OC)[C@@H](C)C[C@H]2[C@@H]3CCC4=CC(=O)C=C[C@]4(C)[C@@]3(F)[C@@H](O)C[C@@]21C` [compound 1], for which, in experiment [1], the IC50 – broadly, the concentration at which inhibition is half-maximal – was 2 nM. The Emax in experiment [2] was found to be 100%.

`CCC(=O)O[C@]1(C(=O)OC)[C@@H](C)C[C@H]2[C@@H]3CC(F)C4=C(F)C(=O)C=C[C@]4(C)[C@@]3(F)[C@@H](O)C[C@@]21C` (stereo partly drawn) [compound 3]: in experiment [1], the IC50 stood at 15 nM. Besides, the Emax in experiment [2] stood at 100%.

As for `CCCC(=O)O[C@]1(C(=O)OC)[C@@H](C)C[C@H]2[C@@H]3CC(F)C4=CC(=O)C=C[C@]4(C)[C@@]3(F)[C@@H](O)C[C@@]21C` (stereo partly drawn) [compound 4], the IC50 in experiment [1] came to 0.25 nM. Also, the Emax in experiment [2] was 170%.

With `CCC(=O)O[C@]1(C(=O)OC)[C@H](C)C[C@H]2[C@@H]3CC(F)C4=CC(=O)C=C[C@]4(C)[C@@]3(F)[C@@H](O)C[C@@]21C` (stereo partly drawn) [compound 7], in experiment [1], the IC50 amounted to 0.25 nM. Moreover, the Emax in experiment [2] worked out at 110%.

Turning to `CCC(=O)O[C@]1(C(=O)OC)[C@H](C)C[C@H]2[C@@H]3CC(F)C4=C(F)C(=O)C=C[C@]4(C)[C@@]3(F)[C@@H](O)C[C@@]21C` (stereo partly drawn) [compound 8], the IC50 in experiment [1] turned out to be 0.25 nM. In experiment [2], the Emax amounted to 120%.

Turning to `CCCC(=O)O[C@]1(C(=O)OC)[C@H](C)C[C@H]2[C@@H]3CC(F)C4=CC(=O)C=C[C@]4(C)[C@@]3(F)[C@@H](O)C[C@@]21C` (stereo partly drawn) [compound 9], in experiment [1], the half-inhibitory concentration (IC50) came out at 0.025 nM. Further, in experiment [2], the Emax is 90%.
